Reference: patent US12396461B2, “Functional peptides having antimicrobial activity against phytopathogenic microorganisms” (TOYOTA JIDOSHA KABUSHIKI KAISHA, priority 2019, dated 2025)
Several values for one entry are separate records, joined by “and”; a condition that tells them apart may be missing. Identical values can stand only once. Like-named read-outs stand apart in the source and are kept apart here.

How the values were obtained:
[1] = test system: plant pathogenic filamentous fungi; type: cell-based; conditions: Table 3
[2] = test system: Colletotrichum orbiculare; type: cell-based; set-up: key to Plate antimicrobial activity test Colletotrichum orbiculare, level: a case where hyphae extended to the entire well and no antimicrobial activity was found is defined as “level 0,”; a case where hyphae extended to less than a half of the well and thus the peptide inhibited the growth of the hyphae is defined as “level 1,”; a case where ungerminated spores were present and the peptide partially inhibited the germination is defined as “level 2,”; a case where all spores were ungerminated and the peptide completely inhibited the germination is defined as “level 3.”; conditions: 25° C. for 1 day or 2 days, microscopic observation
[3] = test system: Colletotrichum destructivum; test: Colletotrichum destructivum leaf inoculation test (Chinese cabbage leaf); type: in vivo; conditions: Chinese cabbage leaf, 25° C. for 4 days, lesions by visual inspection, symbols ◯/Δ/X not defined
Experimental: In the present example, a suspension comprising Colletotrichum destructivum and a peptide to be tested was dropped on a plant leaf, and lesions were then observed by visual inspection to evaluate the antimicrobial activity of the tested peptide. First, the pores of Colletotrichum destructivum were suspended in water to result in a spore concentration of 5×10^5 spores/ml, so as to prepare a water suspension of spores. Subsequently, a peptide to be tested (TsORF6-1) was added to the water suspension of spores, so that the final concentration of the peptide to be tested became 0 μM, 1 μM, 10 μM or 100 μM. Thereafter, 10 μl each of the water suspension of spores containing the peptide to be tested was dropped on the front side and the back side of the leaf of Chinese cabbage (variety name: “Kigokoro 85”). In this condition, incubation was carried out at 25° C. for 4 days. Thereafter, the front and back sides of the leaf were observed by visual inspection.

[4] = test system: Colletotrichum destructivum; type: cell-based; set-up: key to Plate antimicrobial activity test Colletotrichum destructivum, level: a case where hyphae extended to the entire well and no antimicrobial activity was found is defined as “level 0,”; a case where hyphae extended to less than a half of the well and thus the peptide inhibited the growth of the hyphae is defined as “level 1,”; a case where ungerminated spores were present and the peptide partially inhibited the germination is defined as “level 2,”; a case where all spores were ungerminated and the peptide completely inhibited the germination is defined as “level 3.”; conditions: 25° C. for 1 day or 2 days, microscopic observation
Botrytis cinerea = type: cell-based; set-up: key to Plate antimicrobial activity test Botrytis cinerea, level: a case where hyphae extended to the entire well and no antimicrobial activity was found is defined as “level 0,”; a case where hyphae extended to less than a half of the well and thus the peptide inhibited the growth of the hyphae is defined as “level 1,”; a case where ungerminated spores were present and the peptide partially inhibited the germination is defined as “level 2,”; a case where all spores were ungerminated and the peptide completely inhibited the germination is defined as “level 3.”; conditions: 25° C. for 1 day or 2 days, microscopic observation
Fusarium oxysporum = type: cell-based; set-up: key to Plate antimicrobial activity test Fusarium oxysporum, level: a case where hyphae extended to the entire well and no antimicrobial activity was found is defined as “level 0,”; a case where hyphae extended to less than a half of the well and thus the peptide inhibited the growth of the hyphae is defined as “level 1,”; a case where ungerminated spores were present and the peptide partially inhibited the germination is defined as “level 2,”; a case where all spores were ungerminated and the peptide completely inhibited the germination is defined as “level 3.”
Pyricularia oryzae = type: cell-based; set-up: key to Plate antimicrobial activity test Pyricularia oryzae, level: a case where hyphae extended to the entire well and no antimicrobial activity was found is defined as “level 0,”; a case where hyphae extended to less than a half of the well and thus the peptide inhibited the growth of the hyphae is defined as “level 1,”; a case where ungerminated spores were present and the peptide partially inhibited the germination is defined as “level 2,”; a case where all spores were ungerminated and the peptide completely inhibited the germination is defined as “level 3.”; conditions: 25° C. for 1 day or 2 days, microscopic observation

| Substance | germination inhibitory activity against plant pathogenic filamentous fungi, result in words [1] | Plate antimicrobial activity test Colletotrichum orbiculare, level ([2]; peptide 1 μM) | Plate antimicrobial activity test Colletotrichum orbiculare, level ([2]; peptide 10 μM) | Plate antimicrobial activity test Colletotrichum orbiculare, level ([2]; peptide 100 μM) | Leaf inoculation test Chinese cabbage/Colletotrichum destructivum ([3]; peptide 100 μM) | Plate antimicrobial activity test Colletotrichum destructivum, level ([4]; peptide 1 μM) | Plate antimicrobial activity test Colletotrichum destructivum, level ([4]; peptide 10 μM) | Plate antimicrobial activity test Colletotrichum destructivum, level ([4]; peptide 100 μM) | Plate antimicrobial activity test Botrytis cinerea, level (Botrytis cinerea; peptide 1 μM) | Plate antimicrobial activity test Botrytis cinerea, level (Botrytis cinerea; peptide 10 μM) | Plate antimicrobial activity test Botrytis cinerea, level (Botrytis cinerea; peptide 100 μM) | Plate antimicrobial activity test Fusarium oxysporum, level (Fusarium oxysporum) | Plate antimicrobial activity test Pyricularia oryzae, level (Pyricularia oryzae; peptide 1 μM) | Plate antimicrobial activity test Pyricularia oryzae, level (Pyricularia oryzae; peptide 10 μM) | Plate antimicrobial activity test Pyricularia oryzae, level (Pyricularia oryzae; peptide 100 μM) | Leaf inoculation test Chinese cabbage/Colletotrichum destructivum ([3]; peptide 10 μM) |
| --- | --- | --- | --- | --- | --- | --- | --- | --- | --- | --- | --- | --- | --- | --- | --- | --- |
| KVMIVVKT (listed as Solanum lycopersicum) [TsORF6-1-8aa-2, partial peptide of TsORF6-1, 8 amino acid residues] | extremely excellent germination inhibitory activity | 0 | 0 | 2 | ◯ | 0 | 0 | 2 | 0 | 0 | 3 | 3 and 0 | 0 | 0 | 2 |  |
| MKVMI (listed as Solanum lycopersicum) [TsORF6-1-5aa-1, partial peptide of TsORF6-1, 5 amino acid residues] | extremely excellent germination inhibitory activity | 0 | 0 | 1 | ◯ | 0 | 0 | 1 | 0 | 0 | 1 | 0 | 0 | 0 | 1 |  |
| MKVMIVVK (listed as Solanum lycopersicum) [TsORF6-1-8aa-1, partial peptide of TsORF6-1, 8 amino acid residues] | extremely excellent germination inhibitory activity | 0 | 0 | 3 | ◯ | 0 | 0 | 3 | 0 | 0 | 2 | 3 and 0 | 0 | 0 | 3 | Δ |
| VAKMM (listed as Solanum lycopersicum) [TsORF6-1-5aa-16, partial peptide of TsORF6-1, 5 amino acid residues] | extremely excellent germination inhibitory activity | 0 | 0 | 0 | ◯ | 0 | 0 | 0 | 0 | 0 | 0 | 0 | 0 | 0 | 0 |  |
| VMIVV (listed as Solanum lycopersicum) [TsORF6-1-5aa-3, partial peptide of TsORF6-1, 5 amino acid residues] | extremely excellent germination inhibitory activity | 0 | 0 | 1 | ◯ | 0 | 0 | 1 | 0 | 0 | 1 | 0 | 0 | 0 | 0 |  |
| VMIVVKTK (listed as Solanum lycopersicum) [TsORF6-1-8aa-3, partial peptide of TsORF6-1, 8 amino acid residues] | extremely excellent germination inhibitory activity | 0 | 0 | 3 | ◯ | 0 | 0 | 3 | 0 | 0 | 3 | 3 and 0 | 0 | 0 | 3 | ◯ |
